Patent publication US20070066594A1, “Crystalline forms fenoldopam mesylate” (priority 2005, published 2007)

Key:
Type in all cases: physicochemical
[1] = Stability under humid conditions: crystalline form by XRD after exposure to relative humidity
Experimental: (§1) X-Ray powder diffraction data were obtained by using methods known in the art with a SCINTAG powder X-Ray diffractometer model X'TRA equipped with a solid-state detector. The X-Ray radiation was copper radiation, having a wavelength of 1.5418 Å. A round aluminum sample holder with zero background was used for the measurements. All peak positions are within ±0.2° 2θ.
(§2) TGA analysis determined that this form has a water content of 7.8 percent by weight water.
Fenoldopam mesylate Type I was stored at 100 percent relative humidity for 8 days at room temperature. […]

[2] = Stability on drying/heating at 80° under vacuum, crystalline form by XRD; conditions: dried 16 hours at 80° under vacuum; methanesulfonate
Experimental: as §1
An 81.5 gram sample of the product produce in Example 17 was dried for 16 hours at 80° under vacuum, providing a yield of 81.2 grams, having a water content of 0.05 percent by weight, and an isopropanol content of 1620 ppm. An XRD analysis confirmed the product sample was fenoldopam mesylate Type II.
A 4.08 gram sample of the product of Example 22 was dried at 80° C. under vacuum for 16 hours, providing a yield of 3.95 grams, having a water content of 0.02 percent by weight and a methanol content of 766 ppm. An XRD analysis confirmed the product sample was fenoldopam mesylate Type III.

[3] = Hygroscopicity: water content by TGA after exposure to relative humidity; conditions: for Water content (by TGA): Table 4
Experimental: The TGA analysis was performed with a Mettler M3 thermogravimeter with samples of about 8 mg and a scan rate of 10° C./min from 25° C. to 200° C., subtracting a blank from the sample. The TGA oven was constantly purged with nitrogen gas at a flow rate of 40 ml/min, and standard 150 μl alumina crucibles covered by lids with 1 hole were used.
as §2
Fenoldopam Type VI was produced when a mixture of about 50 mg of fenoldopam mesylate Type I, produced in Examples 2 and 4, was exposed to 0 percent relative humidity at room temperature for 8 days.

[4] = 100 percent relative humidity, more than about 7 days, room temperature

Question: Which results are given for `CS(=O)(=O)O.Oc1ccc(C2CNCCc3c2cc(O)c(O)c3Cl)cc1` (centres unmarked) [Type III, 6-chloro-2,3,4,5-tetrahydro-1-(4-hydroxyphenyl)-[1H]-3-benzazepine-7,8-diol methanesulfonate]?
Answer: Crystalline form (by XRD) ([1]; Table 3, 80 % RH, 8 days): Type III; Crystalline form (by XRD) ([1]; Table 3, 100 % RH, 8 days): Type III; Crystalline form (by XRD) ([1]; Table 3, initial sample): Type III; Crystalline form (by XRD) after drying [2]: Type III

Question: For `CS(=O)(=O)O.Oc1ccc(C2CNCCc3c2cc(O)c(O)c3Cl)cc1` (centres unmarked) [Type II, 6-chloro-2,3,4,5-tetrahydro-1-(4-hydroxyphenyl)-[1H]-3-benzazepine-7,8-diol methanesulfonate, reference compound], which “Crystalline form (by XRD) after drying” value [2] is on record?
Answer: Type II

Question: Which “Water content (by TGA)” value ([3]; 0 % RH, 8 days, room temperature) does the source give for `CS(=O)(=O)O.Oc1ccc(C2CNCCc3c2cc(O)c(O)c3Cl)cc1` (centres unmarked) [Type I, 6-chloro-2,3,4,5-tetrahydro-1-(4-hydroxyphenyl)-[1H]-3-benzazepine-7,8-diol methanesulfonate] here?
Answer: 0.9

Question: What about the “Water content (by TGA)” value ([3]; 20 % RH, 8 days) of the same compound?
Answer: 7.9

Question: What about the “Water content (by TGA)” value ([3]; 40 % RH, 8 days) of the same compound?
Answer: 8.0

Question: And the “Water content (by TGA)” value ([3]; 60 % RH, 8 days)?
Answer: 7.9

Question: And the “Water content (by TGA)” value ([3]; 80 % RH, 8 days)?
Answer: 8.0

Question: And the “Water content (by TGA)” value ([3]; initial)?
Answer: 8.0

Question: And the “Time the crystalline form is stable (remains as the Type I dihydrate) on exposure to relative humidity” value ([1]; 0 to 100% relative humidity)?
Answer: more than 5 days

Question: What about the “Crystalline form (by XRD)” value ([1]; 20 % RH, 8 days, room temperature) of the same compound?
Answer: Type I

Question: What about the “Crystalline form (by XRD)” value ([1]; 40 % RH, 8 days, room temperature) of the same compound?
Answer: Type I

Question: What about the “Crystalline form (by XRD)” value ([1]; 60 % RH, 8 days, room temperature) of the same compound?
Answer: Type I

Question: What about the “Crystalline form (by XRD)” value ([1]; 80 % RH, 8 days, room temperature) of the same compound?
Answer: Type I

Question: And the “Crystalline form (by XRD)” value ([1]; 100 % RH, 8 days, room temperature, methanesulfonate)?
Answer: remains fenoldopam mesylate Type I

Question: What about the “Crystalline form (by XRD)” value ([1]; Table 4, 0 % RH, 8 days, room temperature) of the same compound?
Answer: Type VI

Question: And the “Crystalline form (by XRD)” value ([1]; Table 4, 20 % RH, 8 days)?
Answer: Type I

Question: What about the “Crystalline form (by XRD)” value ([1]; Table 4, 40 % RH, 8 days) of the same compound?
Answer: Type I

Question: And the “Crystalline form (by XRD)” value ([1]; Table 4, 60 % RH, 8 days)?
Answer: Type I

Question: And the “Crystalline form (by XRD)” value ([1]; Table 4, 80 % RH, 8 days)?
Answer: Type I

Question: And the “Crystalline form (by XRD)” value ([1]; Table 4, initial)?
Answer: Type I

Question: And the “Crystalline form (by XRD)” value ([1]; initial sample)?
Answer: Type I

Question: What does the source list for `CS(=O)(=O)O.Oc1ccc(C2CNCCc3c2cc(O)c(O)c3Cl)cc1` (centres unmarked) [Type V, 6-chloro-2,3,4,5-tetrahydro-1-(4-hydroxyphenyl)-[1H]-3-benzazepine-7,8-diol methanesulfonate]?
Answer: Water content (by TGA) after humidity exposure [3, 4]: 7.8 percent by weight; Crystalline form after humidity exposure (by PXRD) [1, 4]: transforms this form to Type I
